Reference: ChEMBL document CHEMBL3507680, “University of Dundee, Gates Library screen for HepG2 cell viability”

Test: Human HepG2 cell viability assay in 384 well format
Assay type: toxicity, cell-based
Set-up: dose 125 nL, time 70.5 hour; cytotoxicity at 70.5 h: concentration not given beside the values
Conditions: HepG2 cells, read-out: Inhibition

| SMILES | cytotoxicity at 70.5 h |
| --- | --- |
| O=C(NCCOCCO)[C@@]12CNC[C@@H]1CN(C1CCCC1)C2 | 2.24% |
| O=C(c1cnc(Nc2ccccc2)nc1)N1CCC2(CCNCC2)CC1 | -13.5% |
| COc1ccccc1-c1ncc(CN2CCC3(CCN(C)C3)CC2)cn1 | -8.29% |
| O=C(N[C@@H]1CCN(C(=O)c2cc[nH]c2)C[C@H]1O)c1ccccn1 | -0.892% |
| O=C(CCNC(=O)c1ccccc1F)NCCNc1cccnc1 | 1.94% |
| CCc1nc2ccccc2n1C(CC)C(=O)N(C)Cc1nc(C)c[nH]1 (centres undefined) | 21.7% |
| Cn1cnnc1CC1CCN(Cc2c(Cl)cncc2Cl)CC1 | 16.9% |
| CCNc1ncc(C(=O)NCCc2ccc(C)c(C)c2)cn1 | -4.37% |
| CCn1ncc2c1NC(=O)CC2c1cnc(-c2ccccn2)nc1 (centres undefined) | -2.85% |
| Cc1ncoc1C(=O)N1CCc2[nH]nc(-c3ccc4c(c3)OCO4)c2C1 | 16.8% |
| CS(=O)(=O)c1ccc(CC(=O)N2CCN3CCNC(=O)C3C2)cc1 (centres undefined) | -2.91% |
| CN(Cc1noc2c1CCCC2)C(=O)Nc1cncc(F)c1 | -7.85% |
| CC(C)CNC(=O)CN1CCCC(c2ccc(C(=O)O)cc2)C1 (centres undefined) | -6.21% |
| CN(Cc1ccccc1-n1cccn1)c1nc(N)nc2c1CCNCC2 | 4.77% |
| Cc1ccccc1N1CCN(C(=O)c2cnc(C3CC3)nc2)C(C)C1 (centres undefined) | -2.79% |
| Cc1ncc(CN2CCC3(CC2)CC(=O)N(C)C3)cn1 | 4.13% |
| Cc1oc(C(C)C)cc1C(=O)N1C[C@H]2CC[C@@H]1CN(S(=O)(=O)N(C)C)C2 | -7.52% |
| O=C(c1ccccn1)N1C[C@@H]2CC[C@H](C1)N(C(=O)Cc1cccs1)C2 | -10% |
| CCc1cn[nH]c1C1CCCN(C(=O)c2ncoc2C(C)C)C1 (centres undefined) | -2.87% |
| COc1ccc(CN2C[C@@H]3CC[C@H](C2)N(S(=O)(=O)C2CC2)C3)cc1 | -5.41% |
| Cc1ccc2oc(=O)n(CC(=O)N3CCC4(CC3)CN(C)C(=O)O4)c2c1 | 13.2% |
| COc1ccc(Cl)cc1S(=O)(=O)N1C[C@@H]2CC[C@H](C1)N(C)C2=O | 6.39% |

| SMILES | cytotoxicity at 70.5 h |
| --- | --- |
| CCCn1nc(C)c(CNC(=O)c2snnc2C)c1C | -13.1% |
| O=C(O)C1(n2ccc(-c3ccco3)n2)CCN(Cc2ccccn2)CC1 | -4.75% |
| CCC(CC)n1nc(C)cc1NC(=O)C1CCOC1 (centres undefined) | -6.47% |
| COc1ccccc1[C@@H]1CN(Cc2ccc3nsnc3c2)C[C@H]1C(=O)O | -5.24% |
| N[C@@H]1c2ccccc2C2(CCN(C(=O)c3ccc(CO)o3)CC2)[C@H]1O | -5.57% |
| Cc1nccn1Cc1nnc(C2CCN(c3ccncc3F)CC2)n1C | 17.7% |
| O=C(O)C(c1ccc2c(c1)OCO2)N1CCCCCC1 (centres undefined) | -1.77% |
| Cc1cc(NCc2cc3n(n2)CCCN(C(=O)C2CCC2)C3)ncn1 | 0.388% |
| CN1CCN(CCCNCc2cc(O)c3cc(F)ccc3n2)CC1 | -4.99% |
| COC(=O)CCCn1ccnc1-c1ccc(OC)c(F)c1F | 3.06% |
| CCC(C)N(Cc1ccncc1)C(=O)CCSC (centres undefined) | -10.6% |
| Cc1nc2c(C(=O)N[C@H]3C[C@H]4CN(C)CCN4C3)cccc2[nH]1 | -10.2% |
| CN(CCCc1nccn1C)C(=O)C1CCN(C(=O)C2CCCC2)CC1 | 4.09% |
| COc1cc2[nH]c(=O)c(CN3CCCC3C)cc2c(OC)c1OC (centres undefined) | -6.4% |
| CC(C)c1nccn1Cc1cc(C(=O)NCC(F)(F)F)n[nH]1 | -9.18% |
| COc1ccc(OCc2nccc(-c3cc(C(=O)O)ccn3)n2)cc1 | -2.16% |
| COCCn1c(CN2CCCCO2)cnc1S(=O)(=O)CC1CCCCC1 | -2.46% |
| Cc1cc(C)c2[nH]c(=O)c(CN3CCCC4(C3)CN(C)C(=O)O4)cc2c1 (centres undefined) | -8.68% |
| CCC[C@H]1CN(CCS(C)(=O)=O)C[C@@H]1NC(=O)Cn1cc(C)cn1 | -6.99% |
| CC(=O)N1C[C@H]2CNC[C@@]2(C(=O)NCCOc2ccccc2F)C1 | 0.818% |
| O=C(CCc1nc2ccccc2[nH]1)NC1CCOC2(CCOCC2)C1 (centres undefined) | 20.1% |
| CSc1ncc(C(=O)N2C[C@H]3CC[C@@H]2CN(c2ncccn2)C3)cn1 | 24.3% |

| SMILES | cytotoxicity at 70.5 h |
| --- | --- |
| COc1ccc(C(=O)N2C[C@@H](C(=O)O)[C@H](c3ccccc3)C2)c(C)c1 | 11.5% |
| CCNc1ncc(C)c(-c2cnn(C)c2)n1 | -13.2% |
| c1ccc(-n2cnnc2CCCN2CCOCC2)cc1 | -2.59% |
| Cc1n[nH]c(C)c1CCCN(C)c1cc(N(C)C)ncn1 | 6.66% |
| Cc1csc(N2CCC(CCN3CCCC3=O)CC2)n1 | -14.3% |
| Nc1cc(-c2cc(C(=O)O)ccc2Cl)c2cc[nH]c2n1 | -8.39% |
| CCOc1ccc(C2CC(=O)NCc3nc(N)sc32)cc1CO (centres undefined) | -6.2% |
| Cc1cc(C[C@@H]2COC[C@@H]2NC(=O)CN2CCc3ccccc3C2)on1 | 8.76% |
| CCCc1nc(N[C@H]2COC[C@@H]2N2CCCC2)c2cnn(C)c2n1 | -7.83% |
| CCOc1cc(Cl)c(CN2CCC3(CCCNC3=O)C2)cc1OC (centres undefined) | -5.69% |
| CCn1c(C2CCN(C(=O)c3ccc4cc[nH]c4c3)CC2)n[nH]c1=O | 9.25% |
| Cn1cc(CN2CCCC(CCc3ccc(F)cc3F)C2)cn1 (centres undefined) | -3.89% |
| O=C(c1ccon1)N1CCc2ncnc(NCc3cccnc3)c2CC1 | -5.39% |
| CCCN1CCN(C(=O)c2cnc(C)nc2)[C@H]2CS(=O)(=O)C[C@H]21 | -0.0232% |
| COCCN1CC(=O)N2CC[C@@H](O)C[C@H]2C1=O | 28.2% |
| O=C(c1ccoc1)N1CCCN(CC2CCOc3ccccc3C2)CC1 (centres undefined) | 18.3% |
| Cc1n[nH]c(C)c1CN1CC[C@@H]2[C@@H](CCC(=O)N2CCc2c[nH]cn2)C1 | 1.53% |
| CCCc1nnc(N2CCN(Cc3ccccc3OC)CC2)o1 | 23.6% |
| CCCn1cnnc1CNC(=O)CC1C(=O)NCCN1C(C)C (centres undefined) | 10.7% |
| Cc1nc(CN(CCc2ccccc2)C2CCN(C)CC2)no1 | -10.3% |
| Cc1n[nH]c(C)c1CNC(=O)c1cn(CCC2CCCCN2)nn1 (centres undefined) | -1.34% |
| CC(C)N(C)CCC(=O)N1CCCC(c2ccc(C(=O)O)cc2)C1 (centres undefined) | -7.94% |

| SMILES | cytotoxicity at 70.5 h |
| --- | --- |
| O=C(O)[C@]12CCCN(Cc3ccccn3)[C@@H]1CCN(c1cnccn1)C2 | -3.65% |
| CC(C)Cc1cc(CNC(=O)C2CCCN(C(=O)N(C)C)C2)no1 (centres undefined) | -2.31% |
| CCSCC(C)NCc1nn(C)c2ccc(C)cc12 (centres undefined) | -5.67% |
| CN(CCc1ccccn1)[C@@H]1CCN(c2cccc(C#N)n2)C[C@H]1O | 0.836% |
| CCc1cc(N[C@@H](CC(C)C)C(N)=O)n2nc(C)c(C)c2n1 | -8.65% |
| COc1cnc(N2CCCC(c3ncc[nH]3)C2)nc1 (centres undefined) | -3.19% |
| O=C(CCN1CCOC(C(F)(F)F)C1)NCc1ccccc1Cl (centres undefined) | 15.4% |
| Cc1nn(C)c2nc(N3CCCCC3c3nccs3)sc12 (centres undefined) | 5.1% |
| COCc1cc(N2CCOC(c3ccc(F)cc3)C2)ncn1 (centres undefined) | -14.9% |
| Cc1ccsc1[C@@H]1CCN(C(=O)CCc2nc3ccccc3[nH]2)C[C@H]1O | 5.42% |
| CC(=O)Cc1c(C)nn(-c2cncc(N)c2)c1C | -1.56% |
| CCC(NC(=O)CC1CCN(CC)CC1)c1cn2cccnc2n1 (centres undefined) | -5.63% |
| CSCC(=O)N[C@H]1CC[C@H](Nc2nccc(-c3cccnc3)n2)C1 | 16.3% |
| Cn1ccnc1CN1CCC(CCC(=O)Nc2ccccc2Cl)CC1 | -2.64% |
| Fc1cccc(OC2CCN(CCn3cc4ccccc4n3)CC2)c1 | -21.6% |
| N#Cc1cc2c(=O)n(CC(O)Cc3ccccc3)ccc2[nH]c1=O (centres undefined) | -13.6% |
| CCNC(=O)[C@@H]1C[C@@H](n2cc(CC3CCCCC3)nn2)CN1 | -9.79% |
| CN(Cc1ccncn1)C(=O)C1(Oc2ccc(Cl)cc2)CCNCC1 | -4.8% |
| Cc1cnccc1-n1nc(C(C)C)nc1CCc1cnccn1 | -19.8% |
| COCc1noc(-c2ccc(N3CCCC3c3ccc(F)cc3)nc2)n1 (centres undefined) | -3.49% |
| CC(Cn1cncn1)Nc1ccc(-c2nccn2C)nn1 (centres undefined) | -7.86% |
| CCOc1ccc(C(=O)CCC(=O)N(C)Cc2noc(C)n2)cc1C | -6.08% |

| SMILES | cytotoxicity at 70.5 h |
| --- | --- |
| CNc1cc(C)nc(N2C[C@H](C3CC3)[C@@H](N)C2)n1 | 6.57% |
| O=C(c1cccnc1N1CCOC(c2ccc(F)cc2)C1)N1CCCC1 (centres undefined) | -14.7% |
| CCC(O)Cn1nc(CCSC)nc1-c1ccc2[nH]ccc2c1 (centres undefined) | 1.48% |
| CNC(=O)CN(C)c1nc(-c2ccc(C(N)=O)cc2)nc2c1CCNC2 | -0.358% |
| N#Cc1cccnc1Oc1cc(F)c(CN2CCCC2)c(Cl)c1 | -1.54% |
| COCCNc1nc2c(c(NCc3cnc(C)cn3)n1)CCNCC2 | -4.71% |
| CCCC1(CO)CCCN(Cc2ncccn2)C1 (centres undefined) | -5.25% |
| CCCSCC(=O)N1CCN(c2ccc(OC)cc2)CC1C (centres undefined) | -2.57% |
| O=C(c1cc[nH]n1)N1CCc2ncnc(NCc3ccccn3)c2CC1 | -8.31% |
| CSCCc1n[nH]c2c1CN(S(=O)(=O)c1cn(C)c(C)n1)CC2 | -4.85% |
| O=C(CCc1ccsc1)N1CCC(n2cc(CO)nn2)CC1 | -13.1% |
| Cn1ccnc1SCCNc1nccc(C(F)(F)F)n1 | 16% |
| Fc1cc(Cl)cnc1N1CCCC(c2nccn2Cc2ccncc2)C1 (centres undefined) | -14% |
| c1cnnc(N2CCC(c3nnc(Cn4ccnc4)n3C3CC3)CC2)c1 | -4.27% |
| O=C(COCC1CCCCO1)N1CCN(Cc2ccccc2F)C(=O)C1 (centres undefined) | -1.62% |
| CN(CCCC1CCCC1)C(=O)c1cc(CN2CCC(O)CC2)on1 | 10.4% |
| COCC1(CNC(=O)[C@@]23CNC[C@@H]2CN(C2CCCC2)C3)CC1 | -3.2% |
| CN(C)CC1(O)CCCN(Cc2ccccc2OCC(=O)N(C)C)C1 (centres undefined) | 2.4% |
| Cc1nc(N2C[C@H]3CC[C@@H](C2)N3)nc2cc(S(C)(=O)=O)ccc12 | -2.58% |
| CCn1nc(C)c(NC(=O)CN2CC[C@H](CO)[C@@H](O)C2)c1C | -11.7% |
| COc1ccc(CCC(=O)N2CCNCC2C(=O)N2CCOCC2)cc1 (centres undefined) | -7.95% |
